Laboratory results from ChEMBL document CHEMBL1201862, “PubChem BioAssay data set” (2004).
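Step 1: Grow cells in 96-well plates. Step 2: Expose to compound for 48 hours at 5 concentrations. Step 3: Interpolate endpoints linearly; if unreached, use highest concentration. At the GI50, growth is halved.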 Active and inactive are the calls of the source. Cut-off read from the data, not from the text of the source: active = GI50 up to about 1.1 µM and inactive = higher.

What was measured:
Assay in all cases: growth of human tumour cells (NCI), 48 h
MDA-MB-435 = test system: MDA-MB-435
SF-268 = test system: SF-268
SF-539 = test system: SF-539
SN12C = test system: SN12C
MDA-MB-231 = test system: MDA-MB-231
OVCAR-5 = test system: OVCAR-5
PC-3 = test system: PC-3
K562 = test system: K562
UACC-62 = test system: UACC-62
RPMI-8226 = test system: RPMI-8226
NCI-H460 = test system: NCI-H460
SR = test system: SR
HOP-92 = test system: HOP-92
CCRF-CEM = test system: CCRF-CEM
HOP-62 = test system: HOP-62
ACHN = test system: ACHN
DU-145 = test system: DU-145
M14 = test system: M14
TK-10 = test system: TK-10
HL-60 = test system: HL-60

| SMILES | GI50 (MDA-MB-435) | GI50 (SF-268) | GI50 (SF-539) | GI50 (SN12C) | GI50 (MDA-MB-231) | GI50 (OVCAR-5) | GI50 (PC-3) | GI50 (K562) | GI50 (UACC-62) | GI50 (RPMI-8226) | GI50 (NCI-H460) | GI50 (SR) | GI50 (HOP-92) | GI50 (CCRF-CEM) | GI50 (HOP-62) | GI50 (ACHN) | GI50 (DU-145) | GI50 (M14) | GI50 (TK-10) | GI50 (HL-60) |
| --- | --- | --- | --- | --- | --- | --- | --- | --- | --- | --- | --- | --- | --- | --- | --- | --- | --- | --- | --- | --- |
| Cc1cc2oc(C)c(S(=O)(=O)NC(=O)Nc3ccc(Cl)cc3)c(=O)c2c(=O)o1 | > 100 µM (inactive) | > 100 µM (inactive) | > 100 µM (inactive) | > 100 µM (inactive) | > 100 µM (inactive) | > 100 µM (inactive) | 83.6 µM (inactive) | > 100 µM (inactive) | 30.9 µM (inactive) | > 100 µM (inactive) | > 100 µM (inactive) | > 100 µM (inactive) | > 100 µM (inactive) | > 100 µM (inactive) | > 100 µM (inactive) | 59.4 µM (inactive) | > 100 µM (inactive) | > 100 µM (inactive) | > 100 µM (inactive) | > 100 µM (inactive) |
| CC(=O)c1c(C(F)(F)F)[n+]([O-])c2cc(Cl)c(Cl)cc2[n+]1[O-] | 1.3 µM (inactive) | 1.15 µM (inactive) | 1.15 µM (inactive) | 1.12 µM (inactive) | 1.3 µM (inactive) | 1.63 µM (inactive) | 1.31 µM (inactive) | 0.977 µM (active) | 1.26 µM (inactive) | 0.129 µM (active) | 0.242 µM (active) | 0.0196 µM (active) | 0.195 µM (active) | 0.146 µM (active) | 0.27 µM (active) | 0.548 µM (active) | 1.26 µM (inactive) | 1.21 µM (inactive) | 0.212 µM (active) | 0.338 µM (active) |
| O/N=C1\CSc2ccccc2C1 | > 100 µM (inactive) | > 100 µM (inactive) | > 100 µM (inactive) | > 100 µM (inactive) | > 100 µM (inactive) | > 100 µM (inactive) | > 100 µM (inactive) | > 100 µM (inactive) | > 100 µM (inactive) | > 100 µM (inactive) | > 100 µM (inactive) | 94.4 µM (inactive) | 59.4 µM (inactive) | > 100 µM (inactive) | > 100 µM (inactive) | > 100 µM (inactive) | > 100 µM (inactive) | > 100 µM (inactive) | > 100 µM (inactive) | 5.33 µM (inactive) |
| N=c1oc2ccc(Cl)cc2cc1C(=O)NCc1ccccc1 | 78.3 µM (inactive) | > 100 µM (inactive) | > 100 µM (inactive) | > 100 µM (inactive) | > 100 µM (inactive) | > 100 µM (inactive) | 98.9 µM (inactive) | > 42 µM (inactive) | 31.6 µM (inactive) | > 89.3 µM (inactive) | > 100 µM (inactive) | > 57.1 µM (inactive) | 28.9 µM (inactive) | 21.5 µM (inactive) | > 87.3 µM (inactive) | > 91.8 µM (inactive) | > 100 µM (inactive) | > 100 µM (inactive) | > 100 µM (inactive) | 11 µM (inactive) |
| O=C1CCCC[C@H]1C(O)CC1CC(=O)N(c2ccccc2)C(=O)C1 (stereo not given in full) | > 100 µM (inactive) | > 100 µM (inactive) | > 100 µM (inactive) | > 100 µM (inactive) | > 100 µM (inactive) | > 100 µM (inactive) | > 100 µM (inactive) | > 100 µM (inactive) | > 100 µM (inactive) | > 100 µM (inactive) | > 100 µM (inactive) | > 100 µM (inactive) | > 100 µM (inactive) | > 100 µM (inactive) | > 100 µM (inactive) | > 100 µM (inactive) | > 100 µM (inactive) | > 100 µM (inactive) | > 100 µM (inactive) | > 100 µM (inactive) |
| O=[N+]([O-])c1cccc2nccc(NCC(O)CO)c12 (stereo not given) | 16.6 µM (inactive) | 19.8 µM (inactive) | 17.7 µM (inactive) | 16 µM (inactive) | 11.5 µM (inactive) | 21 µM (inactive) | 16.5 µM (inactive) | 20.2 µM (inactive) | 15 µM (inactive) | 12.7 µM (inactive) | 8.18 µM (inactive) | 5.06 µM (inactive) | 20.6 µM (inactive) | 13.3 µM (inactive) | 17.6 µM (inactive) | 20.6 µM (inactive) | 26.3 µM (inactive) | 17.4 µM (inactive) | 18 µM (inactive) | 1.36 µM (inactive) |
| O=P1(N(CCCl)CCCl)NCCCO1 (stereo not given) [CYCLOPHOSPHAMIDE ANHYDROUS] | > 250 µM (inactive) | > 250 µM (inactive) | > 250 µM (inactive) | > 250 µM (inactive) | > 250 µM (inactive) | > 239 µM (inactive) | > 250 µM (inactive) | 213 µM (inactive) | > 250 µM (inactive) | > 250 µM (inactive) | > 238 µM (inactive) | > 250 µM (inactive) | > 246 µM (inactive) | 200 µM (inactive) | > 247 µM (inactive) | > 250 µM (inactive) | > 250 µM (inactive) | > 250 µM (inactive) | > 250 µM (inactive) | 183 µM (inactive) |
